Tested on: cognitive function of participants with Subjective Cognitive Decline
Assay: Cognitive Failures Questionnaire (CFQ), 8-week randomized study of one or two BCP capsules daily
Type: in vivo, human
[1] = one capsule daily (90 mg BCP), week 8
[2] = one capsule daily (90 mg BCP), week 8, lower is better
[3] = two capsules daily (180 mg BCP), week 4

SMILES: C=C1CC/C=C(\C)CC[C@@H]2[C@@H]1CC2(C)C [BCP, beta-caryophyllene]
- CFQ % better vs. baseline: Do you find you forget what you came to the store to buy? [1]: 18% better
- CFQ % better vs. baseline: Do you find you forget whether you've turned off a light or locked the door? [1]: 17% better
- CFQ % better vs. baseline: Do you find you forget which way to turn on a road you know well but rarely use? [1]: 27% better
- CFQ % better vs. baseline: Do you find yourself suddenly wondering if you used a word correctly? [1]: 14% better
- CFQ % better vs. baseline: Do you have trouble making up your mind? [1]: 7% better
- CFQ % better vs. baseline: Do you lose track of paying bills? [1]: 15% better
- CFQ % better vs. baseline: Do you lose your temper and regret it? [1]: 9% better
- CFQ % better vs. baseline: Do you read something and find you haven't been thinking about it and must read it again? [1]: 16% better
- CFQ % better vs. baseline: Do you say something and realize afterwards that it might be taken as an insult? [1]: 20% better
- CFQ % better vs. baseline: Do you start doing one thing at home and get distracted and do something else (unintentionally)? [1]: 4% better
- CFQ % worse vs. baseline: Do you confuse left and right when giving people directions? [1]: 17% worse
- CFQ % worse vs. baseline: Do you find that you forget appointments? [1]: 13% worse
- CFQ change vs. baseline: Do you bump into people? [1]: No change
- CFQ change vs. baseline: Do you find you can't think of anything to say? [1]: no change
- CFQ score: Do you bump into people? [2]: 0.7 ± 0.6
- CFQ score: Do you confuse left and right when giving people directions? [2]: 0.7 ± 0.9
- CFQ score: Do you daydream when you ought to be listening to something? [2]: 1.7 ± 0.9
- CFQ score: Do you fail to hear people speaking to you when you are doing something? [2]: 1.6 ± 0.9
- CFQ score: Do you fail to listen to people's names when you are meeting them for the first time? [2]: 1.9 ± 1.2
- CFQ score: Do you fail to notice signposts on the road? [2]: 1.0 ± 0.8
- CFQ score: Do you fail to see what you want in a supermarket (although it's there)? [2]: 1.3 ± 0.9
- CFQ score: Do you find that you drop things? [2]: 1.2 ± 0.7
- CFQ score: Do you find that you forget appointments? [2]: 0.9 ± 0.8
- CFQ score: Do you find you accidentally misplace things like placing the fruit in the cupboard and the bowl in the refrigerator? [2]: 0.9 ± 0.7
- CFQ score: Do you find you can't quite remember something although it's “on the tip of your tongue”? [2]: 2.1 ± 0.7
- CFQ score: Do you find you can't think of anything to say? [2]: 1.3 ± 0.8
- CFQ score: Do you find you forget people's names? [2]: 2.2 ± 0.8
- CFQ score: Do you find you forget what you came to the store to buy? [2]: 1.4 ± 0.8
- CFQ score: Do you find you forget whether you've turned off a light or locked the door? [2]: 1.5 ± 0.7
- CFQ score: Do you find you forget which way to turn on a road you know well but rarely use? [2]: 0.8 ± 0.7
- CFQ score: Do you find you forget why you went from one place of the house to the other? [2]: 1.7 ± 0.6
- CFQ score: Do you find yourself suddenly wondering if you used a word correctly? [2]: 1.2 ± 0.7
- CFQ score: Do you forget where you put something like a newspaper or a book? [2]: 1.8 ± 0.7
- CFQ score: Do you have trouble making up your mind? [2]: 1.4 ± 0.9
- CFQ score: Do you lose track of paying bills? [2]: 1.1 ± 0.8
- CFQ score: Do you lose your temper and regret it? [2]: 1.0 ± 0.6
- CFQ score: Do you read something and find you haven't been thinking about it and must read it again? [2]: 1.6 ± 0.9
- CFQ score: Do you say something and realize afterwards that it might be taken as an insult? [2]: 1.2 ± 0.7
- CFQ score: Do you start doing one thing at home and get distracted and do something else (unintentionally)? [2]: 2.2 ± 0.6
- Distractibility summed sub-score of CFQ [2]: 11 ± 3
- False triggering summed sub-score of CFQ [2]: 9 ± 4
- Forgetfulness summed sub-score of CFQ [2]: 13 ± 5
- Total CFQ summed sub-score [2]: 33 ± 11
- CFQ % better vs. baseline: Do you bump into people? [3]: 14% better
- CFQ % better vs. baseline: Do you confuse left and right when giving people directions? [3]: 22% better
- CFQ % better vs. baseline: Do you daydream when you ought to be listening to something? [3]: 28%
- CFQ % better vs. baseline: Do you fail to hear people speaking to you when you are doing something? [3]: 12% better
- CFQ % better vs. baseline: Do you fail to listen to people's names when you are meeting them for the first time? [3]: 22% better
- CFQ % better vs. baseline: Do you fail to notice signposts on the road? [3]: 30% better
- CFQ % better vs. baseline: Do you fail to see what you want in a supermarket (although it's there)? [3]: 15% better
- CFQ % better vs. baseline: Do you find that you drop things? [3]: 27% better
- CFQ % better vs. baseline: Do you find that you forget appointments? [3]: 30% better
- CFQ % better vs. baseline: Do you find you accidentally misplace things like placing the fruit in the cupboard and the bowl in the refrigerator? [3]: 13% better
- CFQ % better vs. baseline: Do you find you can't quite remember something although it's “on the tip of your tongue”? [3]: 20%
- CFQ % better vs. baseline: Do you find you can't think of anything to say? [3]: 27% better
- CFQ % better vs. baseline: Do you find you forget people's names? [3]: 20% better
- CFQ % better vs. baseline: Do you find you forget what you came to the store to buy? [3]: 33% better
- CFQ % better vs. baseline: Do you find you forget whether you've turned off a light or locked the door? [3]: 45%
- CFQ % better vs. baseline: Do you find you forget which way to turn on a road you know well but rarely use? [3]: 33% better
- CFQ % better vs. baseline: Do you find you forget why you went from one place of the house to the other? [3]: 39%

From US11911346B2, “Orally administrated therapeutic for treating mild cognitive impairment (MCI) and improving human cognitive function” (BrainCare LLC, priority 2021, dated 2024)
